Data from publication PMC4785407, “Reduction Impairs the Antibacterial Activity but Benefits the LPS Neutralization Ability of Human Enteric Defensin 5” (Scientific Reports, 2016).
Bridge positions count the residues as written; N and C are the ends. Peptide text beside a SMILES is read from it.

Tests used:
[1] = tested on: Salmonella enterica serovar Typhimurium (ATCC 14028); assay: virtual colony count assay, S. Typhimurium; type: cell-based; conditions: for LD50 (Lethal Dose that kills 50% of bacteria) / LD90 (Lethal Dose that kills 90% of bacteria): ATCC 14028 S. Typhimurium, 1 × 10^6 CFU/mL, 10 mM sodium phosphate buffer pH 7.4, 1% TSB, 37 °C, 1 h, duplicate, repeated three times
Experimental: (§1) Figure 3 Reduction attenuates the antibacterial activity of HD5OX against Gram-negative bacteria. […] Peptides were prepared in sterile water, with the final concentrations of 0.78, 1.56, 3.13, 6.25, 12.5, and 25 μg/mL. […] Zero survival points are not plotted.

[2] = tested on: Escherichia coli (ATCC 25922); assay: virtual colony count assay, E. coli; type: cell-based; conditions: for LD50 (Lethal Dose that kills 50% of bacteria) / LD90 (Lethal Dose that kills 90% of bacteria): ATCC 25922 E. coli, 1 × 10^6 CFU/mL, 10 mM sodium phosphate buffer pH 7.4, 1% TSB, 37 °C, 1 h, duplicate, repeated three times
Experimental: as §1

[3] = tested on: E. coli ML35 (ATCC 43827); assay: virtual colony count assay, E. coli ML35; type: cell-based; conditions: for LD50 (Lethal Dose that kills 50% of bacteria) / LD90 (Lethal Dose that kills 90% of bacteria): ATCC 43827 E. coli ML35, 1 × 10^6 CFU/mL, 10 mM sodium phosphate buffer pH 7.4, 1% TSB, 37 °C, 1 h, duplicate, repeated three times
Experimental: as §1

[4] = Circular dichroism (CD) spectroscopy; type: physicochemical; conditions: 27 °C; for CD secondary structure in the presence of LPS: 100 μg/mL peptide, 100 μg/mL LPS; for CD secondary structure in SDS micelles: 100 μg/mL, 20 mM SDS
Experimental: The conformational properties of the peptides were analyzed using an Applied Photophysics Chirascan instrument at 27 °C. A cell with a 1-mm path length was utilized. The CD spectra were obtained from 190–280 nm at 1 nm intervals. The time-per-point was 0.5 s, and the scanning time was approximately 73 s. Peptides (100 μg/mL, 250 μL) prepared in sterile water were examined in the presence of 20 mM sodium dodecyl sulfate (SDS) and 100 μg/mL LPS. Before scanning, peptides were incubated with SDS and LPS at room temperature for 1 h. The data obtained from three independent scans were averaged and smoothed by Pro-Data Chirascan software (version 4.1).

[5] = Isothermal titration calorimetry (ITC), peptides and LPS; type: binding; conditions: for interaction with LPS (heat release): 1 mg/mL peptide, 10 μg/mL LPS, 25 °C, repeated three times
Experimental: Interactions between peptides and LPS were monitored using a MicroCal ITC200 system (Malvern, UK) at 25 °C. The concentration of the peptides in the syringe was 1 mg/mL (40 μL). LPS was prepared in sterile water at a concentration of 10 μg/mL (300 μL per cell). Twenty injections (0.2 μL for the first injection and 2 μL for the remaining injections) were applied at 120 s intervals and at a stirring rate of 1,000 rpm. The data were processed by subtracting the baseline heat release from titrations of sterile water into LPS and from 20 mM DTT into LPS. The experiment was repeated three times.

[6] = tested on: E. coli; assay: Antibacterial assay in the presence of LPS; type: cell-based; conditions: 4 μg/mL LPS, 12.5 μg/mL peptide
Experimental: (B) Heat release of the interaction between 1 mg/mL of the peptides and 10 μg/mL of LPS. Shown is the relationship between the enthalpy value (△H) and the weight ratio of peptides to LPS. […] The antibacterial efficiency is presented as the bacterial lethal rate, which is calculated by dividing the number of killed colonies by the number of colonies remaining after treatment with sterile water or 0.25 mM DTT. Statistical significance was determined by the Student’s t-test. n.s, not significant; **p < 0.01.

[7] = tested on: interaction between LPS and LBP (mouse LBP); assay: LPS-binding protein (LBP) block assay; type: biochemical; conditions: for effect on the interaction between LPS and LBP: 50 μg/mL peptide, mouse LBP 60 ng/mL, biotinylated LPS 50 ng/mL
Experimental: The effects of peptides on the interaction between LPS and low concentrations of LBP were determined as previously described. Briefly, the plates of a LBP ELISA kit (Boster EK1274) were blocked by the incubation of 1% BSA prepared in 10 mM sodium phosphate buffer (pH 7.4) at 37 °C for 1 h, which were subsequently washed with 0.1% Tween-20. Aliquots of 100 μL of mouse LBP (Sigma SRP6034, 60 ng/mL) were added and incubated at 37 °C for 1.5 h. Peptides were prepared in sterile water, with concentrations of 12.5, 25, and 50 μg/mL, respectively. Biotinylated LPS (50 ng/mL) was added in the absence or presence of peptides (pre-incubated at 37 °C for 30 min). Polymyxin B (200 ng/mL) was used as a positive control. The binding of LPS to LBP was determined using a chromogenic reaction between HRP-conjugated streptavidin (Boster BA1088) and TMB (Sigma 860336). Data were processed by subtracting the absorbance in the absence of LPS. Statistical significance was determined by the Student−Newman−Keuls multiple comparisons test.
Figure 5. The efficiencies of peptides in blocking the interaction between LPS and LBP. A LBP ELISA plate was blocked by 1% BSA and subsequently washed with 0.1% Tween-20. Aliquots of 100 μL of the mouse LBP (60 ng/mL) was added and incubated at 37°C for 1.5 h. Peptides were prepared in sterile water, with concentrations of 12.5, 25, and 50 μg/mL, respectively. Biotinylated LPS (50 ng/mL) was then added in the absence or presence of peptides (pre-incubated at 37°C for 30 min). Data were processed by subtracting the absorbance in the absence of biotinylated LPS. Statistical significance was determined by the Student−Newman−Keuls multiple comparisons test. n.s, not significant; **, p < 0.01, relative to the value of the group solely treated with LPS.

[8] = virtual colony count, 0.78-25 μg/mL, HD5OX vs HD5RED

Compound	LD50 (Lethal Dose that kills 50% of bacteria) [1]	LD90 (Lethal Dose that kills 90% of bacteria) [1]	fold of concentration needed to inactivate 90% relative to HD5OX ([1]; S. Typhimurium ATCC 14028, higher than HD5OX)	LD50 (Lethal Dose that kills 50% of bacteria) [2]	LD90 (Lethal Dose that kills 90% of bacteria) [2]	fold of concentration needed to inactivate 90% relative to HD5OX ([2]; E. coli ATCC 25922, higher than HD5OX)	LD50 (Lethal Dose that kills 50% of bacteria) [3]	LD90 (Lethal Dose that kills 90% of bacteria) [3]	fold of concentration needed to inactivate 90% relative to HD5OX ([3]; E. coli ML35 ATCC 43827, higher than HD5OX)	CD secondary structure in aqueous ([4]; 100 μg/mL in sterile water, vs HD5OX)	CD secondary structure in the presence of LPS [4]	CD secondary structure in SDS micelles [4]	interaction with LPS (heat release) [5]	LPS-binding, relative ([5]; weight ratios ≥8.0, vs HD5OX)	antibacterial efficiency in presence of LPS [6]	effect on the interaction between LPS and LBP [7]	LBP-blocking, dose dependence ([7]; 12.5, 25, and 50 μg/mL)	antibacterial action against S. Typhimurium, relative [1, 8]	antibacterial action against E. coli, relative [2, 8]	antibacterial action against E. coli ML35, relative [3, 8]
CC[C@H](C)[C@H](NC(=O)[C@H](CCC(=O)O)NC(=O)[C@H](CS)NC(=O)[C@@H](NC(=O)CNC(=O)[C@H](CO)NC(=O)[C@H](CC(C)C)NC(=O)[C@H](CO)NC(=O)[C@H](CCC(=O)O)NC(=O)[C@H](CCCNC(=N)N)NC(=O)[C@@H](NC(=O)[C@H](C)NC(=O)[C@H](CS)NC(=O)[C@H](CCCNC(=N)N)NC(=O)CNC(=O)[C@@H](NC(=O)[C@H](CCCNC(=N)N)NC(=O)[C@H](CS)NC(=O)[C@H](Cc1ccc(O)cc1)NC(=O)[C@H](CS)NC(=O)[C@@H](NC(=O)[C@H](C)N)[C@@H](C)O)[C@@H](C)O)[C@@H](C)O)C(C)C)C(=O)N[C@@H](CO)C(=O)NCC(=O)N[C@@H](CCCNC(=N)N)C(=O)N[C@@H](CC(C)C)C(=O)N[C@@H](Cc1ccc(O)cc1)C(=O)N[C@@H](CCCNC(=N)N)C(=O)N[C@@H](CC(C)C)C(=O)N[C@@H](CS)C(=O)N[C@@H](CS)C(=O)N[C@@H](CCCNC(=N)N)C(=O)O [HD5RED] (H-ATCYCRTGRCATRESLSGVCEISGRLYRLCCR-OH)	7.9 ± 1.1 µg/mL	19.5 ± 1.6 µg/mL	2.0 -fold	6.5 ± 0.8 µg/mL	12.9 ± 1.3 µg/mL	1.7 -fold	9.9 ± 0.6 µg/mL	22.5 ± 2.3 µg/mL	1.9 -fold	less effective in forming rigid β-sheet structures	adopted a different conformation with two negative ellipticities at 217 nm and 206 nm	transformed into a peptide containing α-helical structures	heat release was higher than that of HD5OX	much stronger than that of HD5OX	significantly impaired	significantly inhibited the LPS-LBP interaction	dose-dependent LBP-blocking			
CC[C@H](C)[C@@H]1NC(=O)[C@H](CCC(=O)O)NC(=O)[C@@H]2CSSC[C@@H]3NC(=O)[C@H](Cc4ccc(O)cc4)NC(=O)[C@@H](NC(=O)[C@@H](NC(=O)[C@H](C)N)[C@@H](C)O)CSSC[C@@H](C(=O)N[C@@H](CCCNC(=N)N)C(=O)O)NC(=O)[C@H](CSSC[C@H](NC(=O)[C@H](CCCNC(=N)N)NC(=O)CNC(=O)[C@H]([C@@H](C)O)NC(=O)[C@H](CCCNC(=N)N)NC3=O)C(=O)N[C@@H](C)C(=O)N[C@@H]([C@@H](C)O)C(=O)N[C@@H](CCCNC(=N)N)C(=O)N[C@@H](CCC(=O)O)C(=O)N[C@@H](CO)C(=O)N[C@@H](CC(C)C)C(=O)N[C@@H](CO)C(=O)NCC(=O)N[C@@H](C(C)C)C(=O)N2)NC(=O)[C@H](CC(C)C)NC(=O)[C@H](CCCNC(=N)N)NC(=O)[C@H](Cc2ccc(O)cc2)NC(=O)[C@H](CC(C)C)NC(=O)[C@H](CCCNC(=N)N)NC(=O)CNC(=O)[C@H](CO)NC1=O [HD5OX, Oxidized human defensin 5] (H-ATCYCRTGRCATRESLSGVCEISGRLYRLCCR-OH; disulfide 3-31, 5-20, 10-30; N-terminus and C-terminus assumed)	4.6 ± 0.5 µg/mL	9.6 ± 0.7 µg/mL		3.2 ± 0.7 µg/mL	7.6 ± 1.1 µg/mL		4.7 ± 0.8 µg/mL	11.6 ± 1.7 µg/mL			slightly red-shifted	maintained the β-sheet structures	exothermically interacted with 10 μg/mL of LPS		virtually unaffected	less effect on the interaction between LPS and LBP		more potent action against these bacteria than HD5RED	more potent action against these bacteria than HD5RED	more potent action against these bacteria than HD5RED
